Measured values published in patent US11339151B2, “Aliphatic acid amide derivative” (Sumitomo Dainippon Pharma Co., Ltd., priority 2019, dated 2022).

How the values were obtained:
human D2 receptor = human D2 receptor (Homo sapiens (Human), UniProt P14416); assay: Test 1: binding activity for human D2 receptor ([3H]Spiperone, CHO cell membrane fraction); conditions: [3H]Spiperone, room temperature 60 minutes
Procedure: (§1) Ki value was evaluated from dissociation constant which was calculated from saturated binding tests, and a substrate concentration, and it was used as an index for binding affinity.

human 5-HT7 receptor [1] = target: T1, human 5-HT7 receptor (Homo sapiens (Human), UniProt P34969); assay: Test 2: antagonist activity for human 5-HT7 receptor (aequorin luminescence, CHO-K1 cells); assay type: cell-based; conditions: Gα16
Procedure: Test 2: Evaluation of Antagonist Activity for Human 5-HT2A Receptor and Human 5-HT7 Receptor
Aequorin, Gα 16 protein, and each receptor were transiently expressed in CHO-K1 cells (Chinese hamster ovary). The cells were cultivated in a CO2 incubator at 37° C. overnight, seeded into a 384-well plate, and stood at room temperature for 2 hours. Each compound dissolved in DMSO was added thereto, and changes in luminescence were measured by FDSS/μCELL drug discovery screening support system (Hamamatsu Photonics K.K.). As for antagonist activity, inhibitory activity of each compound was calculated by setting the luminescence level of wells to which 10 μmol/L endogenous ligand was added as 100%.

human 5-HT7 receptor [2] = target: T1, human 5-HT7 receptor; assay: Test 1: binding activity for human 5-HT7 receptor ([3H]SB-269970, CHO cell membrane fraction); conditions: [3H]SB-269970, room temperature 60 minutes
Procedure: as §1

[3] = Test 3-1: metabolic stability test in human hepatic microsome; assay type: in vitro ADME; conditions: microsome 0.1 mg/mL, test compound 0.1 μmol/L, 37° C., 30 minutes
Procedure: Test 3-1: Metabolic Stability Test in Human Hepatic Microsome
The metabolic stability of the present compound in human hepatic microsome was evaluated as mentioned below. Human hepatic microsome was obtained from Xenontech. Human hepatic microsome, NADPH, and each test compound were mixed in 25 mmol/L phosphate buffer solution (pH 7.4) to reach the following concentrations as shown below, and the mixture was incubated at 37° C. for 30 minutes. • Human hepatic microsome: 0.1 mg/mL • NADPH: 3.2 mmol/L • Test compound: 0.1 μmol/L
The residual ratio of test compound in each sample after 30 minutes was measured by LC-MS, and the metabolic stability in human hepatic microsome was calculated from the following formula. Metabolic stability in human hepatic microsome (mL/min/mg protein)=−LN (residual ratio)/30/0.1

hERG channel = hERG channel (Homo sapiens (Human), UniProt Q12809); assay: Test 5: inhibitory activity for hERG channel (whole cell patch clamp, hERG-CHO cells); assay type: cell-based; conditions: hERG-CHO cells, auto patch clamp
Procedure: Test 5: Evaluation of Inhibitory Activity for hERG Channel
Inhibitory activity of the present compound for hERG channel was measured by whole cell patch clamp method with an auto patch clamp system using CHO cells in which hERG channel involved in human rapidly activating delayed rectifier potassium current (IKr) was forcibly expressed.
hERG-CHO cells purchased from ChanTest Cop. were cultured in a CO2 incubator at 37° C., and dissociated from a flask with trypsin shortly before the measurement of hERG current to prepare a cell suspension.
The cell suspension, the extracellular fluid, the intracellular fluid, and the measurement plate were set in an auto patch clamp system, and hERG current was measured by whole cell patch clamp method. […] Each pulse interval was 15 seconds. The data analysis was carried out with Qube Assay Software (Sophion Sophion). The test was carried out by applying incrementally 4 concentrations of each test compound, and the average of the maximum peak tail currents which were obtained from the last 3 stimulations in each concentration was determined as the evaluated data.

Sequence of human D2 receptor (P14416 whole entry): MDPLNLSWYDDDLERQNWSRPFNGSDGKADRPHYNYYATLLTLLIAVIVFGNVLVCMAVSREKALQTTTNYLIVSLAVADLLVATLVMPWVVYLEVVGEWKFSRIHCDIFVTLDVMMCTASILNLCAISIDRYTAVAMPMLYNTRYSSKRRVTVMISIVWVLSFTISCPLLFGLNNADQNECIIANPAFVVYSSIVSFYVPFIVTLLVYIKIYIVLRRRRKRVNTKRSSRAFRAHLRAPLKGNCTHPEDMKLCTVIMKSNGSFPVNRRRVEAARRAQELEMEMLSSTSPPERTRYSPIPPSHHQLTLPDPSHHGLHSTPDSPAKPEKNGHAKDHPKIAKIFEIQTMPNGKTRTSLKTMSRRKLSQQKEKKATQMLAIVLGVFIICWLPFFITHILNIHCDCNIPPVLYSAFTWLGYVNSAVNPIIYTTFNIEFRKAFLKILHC
T1 sequence (P34969 whole entry): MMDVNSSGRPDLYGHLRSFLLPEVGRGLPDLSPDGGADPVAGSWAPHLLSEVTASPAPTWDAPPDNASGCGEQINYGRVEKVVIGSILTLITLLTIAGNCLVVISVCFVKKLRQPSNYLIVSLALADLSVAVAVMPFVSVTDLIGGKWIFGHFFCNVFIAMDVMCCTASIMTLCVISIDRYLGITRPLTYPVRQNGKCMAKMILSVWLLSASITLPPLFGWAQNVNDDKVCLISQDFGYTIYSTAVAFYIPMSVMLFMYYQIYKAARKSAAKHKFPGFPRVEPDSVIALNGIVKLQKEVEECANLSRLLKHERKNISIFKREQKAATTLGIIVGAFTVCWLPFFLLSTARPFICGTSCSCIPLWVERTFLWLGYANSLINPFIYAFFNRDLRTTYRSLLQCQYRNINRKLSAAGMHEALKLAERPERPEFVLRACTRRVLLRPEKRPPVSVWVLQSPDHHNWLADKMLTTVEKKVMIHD
Sequence of hERG channel (Q12809 whole entry): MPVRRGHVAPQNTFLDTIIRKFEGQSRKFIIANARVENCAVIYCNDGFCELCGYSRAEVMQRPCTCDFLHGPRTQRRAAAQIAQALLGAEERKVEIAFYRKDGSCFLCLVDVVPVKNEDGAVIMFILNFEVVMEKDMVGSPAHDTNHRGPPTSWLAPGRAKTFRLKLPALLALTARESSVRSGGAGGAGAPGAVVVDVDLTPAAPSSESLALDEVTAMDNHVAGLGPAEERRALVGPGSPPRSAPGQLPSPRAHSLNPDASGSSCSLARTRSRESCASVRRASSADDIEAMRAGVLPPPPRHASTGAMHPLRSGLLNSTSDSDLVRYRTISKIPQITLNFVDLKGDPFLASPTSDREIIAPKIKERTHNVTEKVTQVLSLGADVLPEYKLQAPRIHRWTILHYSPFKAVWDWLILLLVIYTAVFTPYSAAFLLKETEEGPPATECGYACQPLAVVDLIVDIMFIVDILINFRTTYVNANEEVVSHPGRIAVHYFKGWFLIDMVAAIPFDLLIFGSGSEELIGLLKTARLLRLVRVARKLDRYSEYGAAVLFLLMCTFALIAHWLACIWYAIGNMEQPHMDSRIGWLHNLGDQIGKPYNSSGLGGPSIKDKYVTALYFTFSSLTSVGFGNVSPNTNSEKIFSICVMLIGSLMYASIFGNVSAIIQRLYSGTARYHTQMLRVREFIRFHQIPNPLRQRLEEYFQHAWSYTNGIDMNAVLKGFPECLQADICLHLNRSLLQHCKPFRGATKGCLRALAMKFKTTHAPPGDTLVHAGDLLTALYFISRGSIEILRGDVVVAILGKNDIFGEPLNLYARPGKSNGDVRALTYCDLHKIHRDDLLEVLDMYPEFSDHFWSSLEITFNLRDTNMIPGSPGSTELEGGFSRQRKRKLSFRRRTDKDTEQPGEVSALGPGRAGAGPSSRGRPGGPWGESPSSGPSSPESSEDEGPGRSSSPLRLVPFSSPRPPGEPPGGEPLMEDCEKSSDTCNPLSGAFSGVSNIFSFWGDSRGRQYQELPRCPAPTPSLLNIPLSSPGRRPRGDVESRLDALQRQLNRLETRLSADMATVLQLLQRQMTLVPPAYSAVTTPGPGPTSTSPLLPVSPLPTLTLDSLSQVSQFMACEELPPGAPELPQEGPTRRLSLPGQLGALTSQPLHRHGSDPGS

| Structure (SMILES) | Ki (human D2 receptor) | IC50 (human 5-HT7 receptor [1]) | Ki (human 5-HT7 receptor [2]) | Metabolic stability in human hepatic microsome [3] | IC50 (hERG channel) |
| --- | --- | --- | --- | --- | --- |
| CCN(CCN1CCC(c2noc3cc(F)ccc23)CC1)C(=O)C1CCC(O)CC1 (stereo not drawn) [Example 9] | < 100 nM | 8 nM | 1.6 nM | <0.05 mL/min/mg protein |  |
| CCN(CCN1CCC(n2ncc3cc(F)ccc32)CC1)C(=O)CCO [Example 2, N-Ethyl-N-{2-[4-(5-fluoro-1H-indazol-1-yl)piperidin-1-yl]ethyl}-3-hydroxypropanamide] | > 1000 nM | 94 nM | 9.3 nM | <0.05 mL/min/mg protein | 7400 nM |
| [2H]C(C)(O)C(=O)N(CC)CCN1CCC(c2noc3cc(F)ccc23)CC1 (stereo not drawn) [Example 40] |  |  |  | <0.05 mL/min/mg protein | 9900 nM |
| CCN(CCN1CCC(c2noc3cc(F)ccc23)CC1)C(=O)[C@H]1CC[C@H](O)CC1 [Example 43] | < 100 nM | 82 nM | 4.3 nM | <0.05 mL/min/mg protein |  |
| CCN(CCN1CCC(c2noc3cc(F)ccc23)CC1)C(=O)C1CC(O)C1 (stereo not drawn) [Example 46] | 75 nM | 83 nM | 4.2 nM | <0.05 mL/min/mg protein |  |
| CCN(CCN1CCC(c2noc3cc(F)ccc23)CC1)C(=O)C(C)O (stereo not drawn) [Example 4] |  |  |  | <0.05 mL/min/mg protein | 7100 nM |
| CCCN(CCN1CCC(c2noc3cc(F)ccc23)CC1)C(=O)C(C)O (stereo not drawn) [Example 39] | < 100 nM | 9 nM | 0.7 nM | <0.05 mL/min/mg protein |  |
| CCN(CCN1CCC(c2noc3cc(Cl)ccc23)CC1)S(=O)(=O)CCO [Example 60] | > 1000 nM | 72 nM | 24.3 nM |  |  |
| CCN(CCN1CCC(c2n[nH]c3cc(F)ccc23)CC1)C(=O)C(C)O (stereo not drawn) [Example 19, N-Ethyl-N-{2-[4-(6-fluoro-1H-indazol-3-yl)piperidin-1-yl]ethyl}-2-hydroxypropanamide] | 105 nM | 61 nM | 2.3 nM | <0.05 mL/min/mg protein | > 10000 nM |
| CCN(CCN1CCC(c2noc3cc(F)ccc23)CC1)C(=O)C1CNCCC1O (stereo not drawn) [Example 67] | < 100 nM | 72 nM | 0.9 nM | <0.05 mL/min/mg protein | > 10000 nM |
| CC(C)N(CCN1CCC(c2noc3cc(F)ccc23)CC1)C(=O)[C@@H](C)O [Example 42] | 74 nM | 9 nM | 2.5 nM | <0.05 mL/min/mg protein | 6400 nM |
| CCN(CCN1CCC(n2ncc3cc(F)ccc32)CC1)C(=O)[C@@H](C)O [Example 3, (2R)—N-Ethyl-N-{2-[4-(5-fluoro-1H-indazol-1-yl)piperidin-1-yl]ethyl}-2-hydroxypropanamide] | > 1000 nM |  |  | <0.05 mL/min/mg protein | > 10000 nM |
| CCN(CCN1CCC(c2noc3cc(F)ccc23)CC1)C(=O)C1CN(C(C)=O)CC1O (stereo not drawn) [Example 73] | 205 nM | 81 nM | 14.4 nM |  |  |
| CCN(CCN1CCC(c2noc3cc(F)ccc23)CC1)C(=O)[C@@H](C)O [Example 1, (2R)—N-Ethyl-N-{2-[4-(6-fluoro-1,2-benzoisoxazol-3-yl)piperidin-1-yl]ethyl}-2-hydroxypropanamide] |  |  |  | <0.05 mL/min/mg protein | 4800 nM |
| CCN(CCN1CCC(c2c[nH]c3cc(F)ccc23)CC1)C(=O)[C@H](C)O [Example 20, (2S)—N-Ethyl-N-{2-[4-(6-fluoro-1H-indol-3-yl)piperidin-1-yl]ethyl}-2-hydroxypropanamide] | 46 nM | 48 nM | 1.5 nM | <0.05 mL/min/mg protein |  |
| CCN(CCN1CCC(c2noc3ccc(C)cc23)CC1)C(=O)[C@H](C)O [Example 14] | > 1000 nM | 82 nM | 14.6 nM |  | 9600 nM |
| CCN(CCCN1CCC(c2noc3ccccc23)CC1)S(=O)(=O)C(C)CO (stereo not drawn) [Example 54] | 116 nM | 1 nM | 2.6 nM | <0.05 mL/min/mg protein |  |
| CCN(CCCN1CCN(c2noc3cc(F)ccc23)CC1)S(=O)(=O)C(C)CO (stereo not drawn) [Example 55] | 78 nM | 3 nM | 0.1 nM | 0.059 mL/min/mg protein |  |
| CCN(CCN1CCC(c2noc3cc(F)ccc23)CC1)C(=O)[C@H]1CC[C@@H](O)CC1 [Example 44] | < 100 nM | 77 nM | 3.2 nM | <0.05 mL/min/mg protein |  |
| CCN(CCN1CCC(n2ncc3cc(F)ccc32)CC1)C(=O)[C@H](C)O [Example 21, (2S)—N-Ethyl-N-{2-[4-(5-fluoro-1H-indazol-1-yl)piperidin-1-yl]ethyl}-2-hydroxypropanamide] | > 1000 nM |  |  | <0.05 mL/min/mg protein | 15300 nM |
| C#CC(O)C(=O)N(CC)CCN1CCC(c2noc3cc(F)ccc23)CC1 (stereo not drawn) [Example 28] | < 100 nM | 80 nM | 10 nM |  |  |
| CCN(CCN1CCC(c2noc3cc(F)ccc23)CC1)C(=O)C(O)CN (stereo not drawn) [Example 65, 3-Amino-N-ethyl-N-{2-[4-(6-fluoro-1,2-benzoisoxazol-3-yl)piperidin-1-yl]ethyl}-2-hydroxypropanamide] | 195 nM | 81 nM | 7.6 nM | <0.05 mL/min/mg protein |  |
| CC(O)C(=O)N(CC#N)CCN1CCC(c2noc3cc(F)ccc23)CC1 (stereo not drawn) [Example 32] | > 10000 nM | 73 nM | 110 nM |  |  |
| CCN(CCN1CCC(c2noc3cc(Cl)ccc23)CC1)C(=O)[C@H](C)O [Example 15] | > 1000 nM | 86 nM | 26.4 nM |  |  |
| CCN(CCN1CCC(c2noc3cc(F)ccc23)CC1)C(=O)[C@H]1NCC[C@H]1O [Example 68] | 910 nM | 91 nM | 48.5 nM | <0.05 mL/min/mg protein |  |
| CCN(CCN1CCC(c2noc3cc(F)ccc23)CC1)C(=O)C(F)(F)CO [Example 36] | 80 nM | 82 nM | 1 nM | <0.05 mL/min/mg protein |  |
| CCN(CCN1CCC(c2noc3cc(F)ccc23)CC1)C(=O)CO [Example 12] |  | 82 nM | 6.9 nM | 0.089 mL/min/mg protein | 2200 nM |
